Source: patent publication US20230095341A1, “COMPOSITIONS AND METHODS FOR TREATING NEURODEGENERATIVE, MYODEGENERATIVE, AND LYSOSOMAL STORAGE DISORDERS” (GEORGETOWN UNIVERSITY, priority 2020, published 2023)
Several values for one entry are separate records, joined by “and”; a condition that tells them apart may be missing. Equal entries are not always repeated. Entries after “also recorded” stand apart in the source; their conditions may differ.

Tests used:
[1] = test system: B35 rat neuroblastoma cells; assay: Lactate dehydrogenase (LDH) assay, cell toxicity; assay type: cell-based; conditions: 5 hours, concentration given in the value
Experimental: (§1) Rat neuroblastoma B35 cells were grown in Dulbecco's Modified Eagle's Medium (DMEM) with 10% Fetal Bovine Serum (FBS) and 1% penicillin/streptomycin and incubated at 37° C. with 5% CO2. For the experiments, cells were transferred to 12-well plates (Cat. #150628, ThermoFisher, Waltham, Mass.) and grown to at least 70% confluence. Transient transfection was performed with 3pg P301L tau (Cat. #30145, Addgene) cDNA or 3pg human a-synuclein cDNA using Fugene HD transfection reagent (Cat. #E2311, Promega, Madison Wis.) for 24 hours. Cells were treated with ImM, I00pM, 10pM, IpM, 0.lIM, 0.01pMl, and 0.001pM dissolved in DMSO or an equivalent SuL of DMSO for 5 hours. Cell culture media was collected and cells were harvested using sodium-tris, EDTA, NP-40 (STEN) buffer and centrifuged at 10,000×g for 20 minutes at 4′C and supernatant was collected. Cell viability was determined via lactate dehydrogenase assay (Cat. #88954, Thermofisher) and MTT assay (Cat. #V13154, Thennofisher). Protein was extracted by removing culture medium and adding 0.2 ml lx STEN buffer (50 mM Tris (pH 7.6), 150 mM NaCl, 2 mM EDTA, 0.2% NP-40, 0.2% BSA, 20 mM PMSF and protease cocktail inhibitor) to cell layer and incubated on ice for 10 minutes. The bottom of the well was scraped and allowed to incubate on ice for an additional 10 minutes. Cell lysates were collected, stored at -80° C., and used for additional analyses.
(§2) Compound 1 (BK5018), Compound 2 (BK5026), Compound 3 (BK5029), Compound 4 (BD5040), Compound 6 (CL2-296). Compound 7 (CL-2-287-1) and Compound 8 (CL-2-287-2) with molecular weights of 284, 339.265, 264, 339, 269 and 247 gimol, respectively, were diluted in Dimethyl Sulfoxide (DMSO) to final concentrations of 100 pM, 10 µM, 1 pM, 0.1 pM, 0.01 pM, and 0.001 pM. Drugs were stored at −80° C.
Cellular cytotoxicity was quantitatively measured by assessment of LDH, a cytosolic enzyme that is released from damaged cells into the cellular media, after exposure to the drug 5 hours after initial dosage. The cell culture media was collected, and an aliquot was coupled with a lactate and NAD+. LDH catalyzes the reaction that converts lactate into pyruvate to produce NADH. NADH, in turn, reduces a tetrazolium salt (NT) into a red fornazan product. The amount of LDH in the media is proportional to the amount of formazan which was measured at 490 nn. The absorbance at 680 nm, to measure the background signal from the instrument, was subtracted from the absorbance at 490 nm to calculate the LDH activity. CelfCulture

[2] = test system: B35 rat neuroblastoma cells; assay: MTT assay, cell viability; assay type: cell-based; conditions: 5 hours, concentration given in the value
Experimental: as §1, §2
To measure cell viability, cells were incubated with 500 pL of Dulbecco's Modified Eagle's Medium (DMEf) containing 50 pL of (3-[4,5-dimethylthiazol-2-yl]-2,5-diphenyl-tetrazolium bromide (ivT)) for 5 hours at 37° C. and 5% CO2. The media was aspirated so that 125 uL of media remained. The formazan salts were dissolved in 250 uL of DMSO. Absorbance was read against a blank containing 125 uL of media and MTT, and 250 uL of DMSO at 570 mn.

[3] = test system: Tauopathy rTG4510 mice expressing human P301L tau; assay: Overnight nest shredding (nesting) behavior; assay type: in vivo, mouse; conditions: 10 mg/kg, 3 weeks, vs DMSO (Kruskal-Wallis P=0.01), rTG4510 mice
Experimental: Tauopathy rTG4510 mice (i.e., a mouse model that clinically manifest a tauopathy), expressing human P301L tau driven by a CAMrII promoter, approximately 9-12 months old, were treated intraperitoneally (I.P.) for 21 consecutive days, […], or Dimethyl sulfoxide (DMSO) (n=7).
Then, blinded, independent observers reviewed images of the overnight shredding and the average quality scores were calculated.
For nest shredding, Mann-Whitney analysis was used within groups, between timepoints, and Kruskal-Wallis analysis was used between treatment groups. For open-field studies, : ordinary one-way ANOVA or Student's I test was used. […]
Blinded independent observers reviewed images of the overnight shredding and the average quality scores were calculated.

[4] = test system: alpha-synuclein in a-synuclein-transfected B35 rat neuroblastoma cells; assay: Reduction of alpha-synuclein in a-synuclein-transfected B35 cells; assay type: cell-based, rat cells transfected with human a-synuclein cDNA; conditions: treatment for five hours with 100aM, lOuM and luM concentrations
Experimental: as §1
To perform transient transfection of a-synuclein into the rat neuroblastoma B35 cells FuGene@ HD Transfection Reagent (Promega Corporation, Madison, Wis.) was used. Cells were grown in 12-well dishes. A mixture containing 12 pg of cDNA, 540 pg of DMEM containing 2% FBS, and 60 pd of FuGene@ HD Transfection Reagent was incubated for 10 minutes. The cells were treated with 50 pl of the FuGeneC HD Transfection Reagent/DNA mixture for 24 hours. Cells were harvested after transfection, media was aspirated, the cells were treated with 200ul of Sodium Tris EDTA NP40 (STEN) lysis buffer then scraped off the plate and collected into a 1.5 ml centrifiuge tube.

murine Tau = assay: Tau ELISA of whole brain lysates from A53T mice; assay type: in vivo, mouse (A53T); conditions: 21 days, 12 month old A53T mice
[5] = 2.5 mg/kg, 5 mg/kg and 10 mg/kg I.P.

| Structure (SMILES) | cell toxicity, as measured by LDH assay [1] | cell toxicity, as measured by MTT assay [2] | nesting mean difference scores ([3]; listed as CL287-1) | nesting mean difference scores ([3]; listed as CL-287-1) | level of alpha-synuclein [4] | murine Tau in whole brain lysates (murine Tau; [5]) | murine Tau in whole brain lysates (murine Tau; 2.5 mg/kg and 10 mg/kg I.P.) |
| --- | --- | --- | --- | --- | --- | --- | --- |
| CC(C)(C)c1ccccc1Nc1ccccc1C(=O)O [CL-2-287-1, 2-((2-(tert-Buty)phenyl)amino)benzoic adid] | at 100 uM or less did not show increased cell toxicity | at 100lM or less did not show increased cell toxicity | significantly different | significantly improved nesting behavior | – | – | – |
| Cc1cccc(Nc2ccc3c(Nc4cccc(C)c4)nccc3c2)c1 [CL2-296, N^4,N^6—Di-m-tolylisoquinoline-1,6-diamine] | 100 uM and IOuM concentrations of CL2-296 displayed decreased levels of LDH and no other concentration of CL2-296 displayed increased cell toxicity and 100luM and 10 uM concentrations of CL2-296 displayed decreased levels of LDH | no concentration of CL2-296 displayed increased cell toxicity | – | – | none of the compounds significantly reduced the level of alpha-synuclein; also recorded: do not significantly reduce | significant reduction | – |
| COc1cccc(Nc2ccnc3cc(Cl)ccc23)c1 [BK5018, 7-Chloro-N-(3-methoxyphenyl)quinoin-4-amine] | 100aM and luM of BK5018 displayed increased levels of LDH and 100 uM and luM of BK5018 displayed increased toxicity | no concentration of BK5018 displayed increased toxicity | – | – | – | – | significant reduction |
| Cc1cccc(Nc2cc(Nc3cccc(C)c3)c3ccccc3n2)c1 [BK5026, N^2,N^4-Di-m-tolyquinoline-2,4-diamine] | lOOuM and 1OuM concentrations of BK5026 displayed increased levels of cell toxicity and 100 uM | OOuM concentrations ofBK5026 displayed increased levels of cell toxicity | – | – | – | – | – |
| COc1ccc2nccc(Nc3cccc(C)c3)c2c1 [BK5030, 6-Methoxy-N-(m-toIyl)quinolin-4-amine] | no concentration of BK5030 displayed increased toxicity | no concentration of BK5030 displayed increased toxicity | – | – | none of the compounds significantly reduced the level of alpha-synuclein; also recorded: do not significantly reduce | – | – |
| COc1ccc2nccc(Oc3ccc(C)cc3)c2c1 [BK5029, 6-Methoxy-4-(p-tolyloxy)quinoUne] | low doses of BK5029 displayed increased toxicity | low doses of BK5029 displayed increased toxicity | – | – | none of the compounds significantly reduced the level of alpha-synuclein; also recorded: do not significantly reduce | significant reduction | – |
